Source: patent US11246961B2, “Engineered scaffolds for vascularized tissue repair” (The Regents of the University of California, priority 2016, dated 2022)

Legend:
[1] = test system: ERK1/2; test: Western-blot analysis, phosphorylation of ERK1/2; assay type: cell-based, human; conditions: LXW7 treated surface, 96 hours, vs D-biotin
Description: The 100-mm dishes from Example 2 were treated with Avidin followed by LXW7-bio or D-biotin as described in Example 5. 8×10^5 HCAECs were seeded per dish and cultured in EGM-2 media for 4 days. Cells were lysed using Extraction Kit (Thermo Fisher Scientific) and protein concentrations were determined using BCA Protein Assay (Thermo Fisher Scientific). Fifteen μg of each sample were loaded and separated using a 4-12% Bis-Tris NuPAGE gel (Thermo Fisher Scientific) and transferred to a nitrocellulose membrane. The membrane was blocked in 5% BSA in TBST (Tris-buffered saline with 0.5% Tween-20), and subsequently incubated with primary antibodies anti-VEGF Receptor 2, anti-Phospho-VEGF Receptor 2, anti-p44/42 MAPK (Erk1/2) and anti-Phospho-p44/42 MAPK (Erk1/2) (Thr202/Tyr204), all purchased from Cell Signaling Technologies, in 1% BSA overnight at 4° C. After washing three times with TBST, the membranes were incubated with respective horseradish peroxidase-conjugated secondary antibodies in 1% non-fat dry milk in TBST (BioRad) for 1 hour at room temperature. After washing, the protein bands were visualized using West Dura Substrate (Thermo Fisher Scientific) and quantified using Image J software.

[2] = test system: EGFR; test: mRNA level of EGFR on EPCs; assay type: cell-based; conditions: EPCs treated with LXW7
Description: FIG. 15 presents graphs of mRNA levels of VEGFR-2 (A) and EGFR (B) on EPCs after treating with different concentrations of LXW7 for 48 h. *P<0.05 vs. Control, #P<0.05 vs. 25 nM (n=10 per group).

[3] = test system: platelets; test: platelet-bead binding assay; assay type: cell-based; conditions: 10 minutes, 30 minutes or 2 hours
Description: HECFCs, HCAECs and HMVECs were cultured in EC expansion medium EGM-2 and THP-1 monocytes were cultured in RPMI Medium 1640 (Gibco) supplemented with 10% fetal bovine serum (FBS, Hyclone) and 0.05 mM 2-mercaptoethanol (Sigma). αvβ3-K562 cells and αIIbβ3-K562 cells were cultured in RPMI Medium 1640 plus 10% FBS. Platelet-rich plasma (PRP) was obtained from UC Davis Medical Center (Sacramento, Calif.). Fresh PRP (260×10^3 platelets/μL) was centrifuged, and the pellets were resuspended in Dulbecco's Phosphate Buffer Saline (DPBS; Hyclone) containing 2 mM CaCl2) and MgCl2 to a final concentration of 1×10^8 platelets/mL.
HECFCs, HCAECs, HMVECs and THP-1 monocytes were cultured in their respective growth medium as described in Example 1. For cell bead-binding assay, 6×10^5 HECFCs, HCAECs, HMVECs or THP-1 monocytes in 2 mL of their respective culture medium were added to an ultra-low attachment 35-mm petri dish (Corning Incorporated) followed by resin beads (Lam et al. (1991) Nature 354:82). The dishes were incubated in a shaking incubator at 37° C., 5% CO2 for various time points at 40 rpm. For platelet bead-binding assay, the platelets isolated as described in Example 1 were added to an ultra-low attachment 35-mm petri dish and incubated with the resin beads in the shaking incubator as described for the cell-bead binding assy. […]

Substance: cGRGDdvc [LXW7]
- phosphorylation of ERK1/2 in ECs [1]: significantly increased
- EGFR mRNA level [2]: increases in VEGFR2 and EGFR mRNA levels were found to be dependent on treatment time
- attachment of platelets to beads displaying LXW7 [3]: did not support effective attachment
